In patent EP3827825A1, “USE OF 3, 4-DIARYLPYRAZOLES AS ANTIBACTERIAL AGENTS” (Wageningen Universiteit, priority 2019, dated 2021):
Values after ≈ are worked out from the molar mass of the structure shown. Where two headings read alike, the source gives them in different places.

Key:
[1] = system: P. multocida; experiment: Minimal inhibitory concentration (MIC), double-dilution in broth, OD600; assay type: cell-based, Pasteurella multocida; details: unit assumed
Experimental: (§1) In short, a stock solution of 5 mg/mL of HKIs in DMSO was made. This stock was diluted to 50 µg/mL in broth in a 96 well plate. Dilutions were made (factor 2) directly in the plate with a multi-channel pipet. Bacteria cultured in suspension overnight were then added to the plate (except negative control) and the plate was incubated for 24 hours. After 24 hours the OD600 was measured using a spectrophotometer. A positive control (with bacteria, without HKI) was also measured on each plate. The MICs were not determined in duplo/triplicate in the same experiment, however, the MICs of several HKIs were measured in different experiments and no major differences (max. 1x dilution) were found in the MICs between the experiments.
(§2) Bacterial strains used in this study for antibacterial susceptibility testing (Table S2) were propagated using standard microbiological procedures. Minimal inhibitory concentrations (MICs) were determined following a standard double-dilution method (42), 73. MICs were recorded as the lowest concentration of the compound where no visible growth was observed. After plating the dilutions around the MIC or growing them in fresh MH media, minimal bactericidal concentration (MBC) was recorded as the lowest concentration of the compound at which no colonies were formed or no growth was observed, respectively. For M. marinum, MICs were determined in Middlebrook 7H9 broth (Difco) and MICs were determined after 3 days incubation at 30 °C.
(§3) Grow the bacterial colonies to be tested from single colonies on an agar plate in LB broth or suitable bacterial growth medium overnight at 37°C. Prepare a 5 mg/mL stock solution of compounds to be tested in DMSO. One 96-well plate per bacterial strain was prepared. First, put 50 uL of medium to each well. Add 48 µL of medium to all wells in row A. Pipet 2 µL of antimicrobial master stock into the top well (row A). Beware, the antimicrobial concentration will be diluted 2x after adding the bacterial culture. Total volume in each well will be 100 µL. In A11, pipet 2 µL of DMSO. Make a serial dilution from row A to row H, pipetting 50 µL from the previous row into the new one. Mix well by pipetting up and down. Discard the last 50 µL so that there is 50 µl in each well In a clean, new plastic pipetting cup, dilute the overnight bacterial culture 100 times. Add 100 µL of bacterial overnight culture to 9900 µL of medium. Mix the suspension well. Once the serial dilutions are complete for all antimicrobial compounds, add 50 µL of diluted overnight bacterial culture to each well (except column 12). Mix by pipetting or put the plate on the shaker. Per 2 plates, close with parafilm around the edges and place in the incubator overnight. After overnight culturing, measure bacterial growth on the SpectraMax. The lowest concentration where no growth is observed is the MIC. To determine the MIB pipette 5 µL from each well of the 96 well plate where now growth was observed on to an LB agar plate, without antimicrobial. Put the plates in the incubator to grow overnight. The minimal concentration where no growth can be seen on the agar plate is the MBC.

[2] = system: E. coli JW5503; assay type: cell-based, Escherichia coli; details: unit assumed
Experimental: as §1, §2, §3

[3] = system: S. aureus Newman; experiment: Minimal inhibitory concentration (MIC), double-dilution in broth, OD600; assay type: cell-based, Staphylococcus aureus Newman; details: unit assumed
Experimental: as §1, with “plate.” for “plate. The MICs were not determined in duplo/triplicate in the same experiment, however, the MICs of several HKIs were measured in different experiments and no major differences (max. 1x dilution) were found in the MICs between the experiments.”
Bacterial strains used in this study for antibacterial susceptibility testing (Table S2) were propagated using standard microbiological procedures. Minimal inhibitory concentrations (MICs) were determined following a standard double-dilution method (42), 73. […] For M. marinum, MICs were determined in Middlebrook 7H9 broth (Difco) and MICs were determined after 3 days incubation at 30 °C.
as §3

[4] = system: E. faecium Van A; experiment: as above; assay type: cell-based, Enterococcus faecium; details: unit assumed
Experimental: as §1, §2, §3

[5] = system: HEK293; experiment: Cell toxicity, Alamar blue assay, 24 hours exposure; assay type: cell-based; details: for IC50: Homo sapiens
Experimental: (§4) Toxicity was primarily determined by measuring cytotoxicity with the Alamar blue assay. In short, cells (HEK293, NRK-52E and Caco-2) were plated in 96-well plates and cultured overnight. HKI compounds were diluted to concentrations ranging from 0.39 to 500 µg/mL in serum-free medium and added to the cells.
(§5) After exposure, cells were incubated for 24 hours. Experiments were mostly performed by single measurement. […] After 24 hours HKIs were removed from the cells and Alamar blue was added, incubated for 45 minutes and fluorescence was measured on a spectrophotometer. Alamar blue measures the conversion of blue, low fluorescent resazurin into high fluorescent pink resorufin. This conversion can only be made in viable mitochondria in viable cells and therefore this dye provides a measure for cytotoxicity.

[6] = system: NRK-52E; experiment: as above; assay type: cell-based; details: for IC50: Rattus norvegicus, read-out: IC50 NRK-52E (50 mg/mL stock)
Experimental: as §4, §5

[7] = system: M. marinum; experiment: Minimal inhibitory concentration (MIC), Middlebrook 7H9 broth, 3 days at 30 °C; assay type: cell-based, Mycobacterium marinum; details: unit assumed
Experimental: as §1, §2, §3

[8] = system: S. suis; experiment: Minimal inhibitory concentration (MIC), double-dilution in broth, OD600; assay type: cell-based, Streptococcus suis; details: unit assumed
Experimental: as §1, §2, §3

[9] = HEK293, read-out: IC50 HEK293 (5 mg/mL stock)
[10] = HEK293, read-out: IC50 HEK293 (50 mg/mL stock)

SMILES	MIC P. multocida [1] [µg/mL]	MIC E. coli JW5503 [2] [µg/mL]	MIC S. aureus Newman [3] [µg/mL]	MIC E. faecium Van A [4] [µg/mL]	IC50 HEK293 (5 mg/mL stock) ([5]; HEK293, 5 mg/mL stock)	IC50 HEK293 (50 mg/mL stock) ([5]; HEK293, 50 mg/mL stock)	IC50 NRK-52E (50 mg/mL stock) ([6]; 50 mg/mL stock)	MIC M. marinum [7] [µg/mL]	MIC S. suis [8] [µg/mL]	IC50 [5, 9] [µg/mL]	IC50 [5, 10] [µg/mL]	IC50 [6] [µg/mL]
Oc1ccc(-c2n[nH]c(C(F)(F)F)c2-c2ccc(Br)cc2)c(O)c1 [AND-1, 4-[4-(4-bromophenyl)-5-(trifluoromethyl)-1∼{H}-pyrazol-3-yl]resorcinol]	25 (≈ 62.6 µM)	1.56 (≈ 3.91 µM)	3.13 (≈ 7.84 µM)	12.5 (≈ 31.3 µM)	6.94	14.7	∼3.86	> 50	12.5 (≈ 31.3 µM)	–	–	–
Cc1noc(-c2ccc(O)cc2O)c1-c1ccc(Br)cc1 [AND-3, 4-[4-(4-bromophenyl)-3-methyl-isoxazol-5-yl]resorcinol]	50 (≈ 144 µM)	6.25 (≈ 18.1 µM)	25 (≈ 72.2 µM)	0.78 (≈ 2.25 µM)	–	–	–	> 50	50 (≈ 144 µM)	12.2 (≈ 35.2 µM)	62.9 (≈ 182 µM)	~354 (≈ 1020 µM)
COc1ccc(-c2[nH]nc(C)c2-c2ccc(Br)cc2)c(O)c1 [May-4, 2-[4-(4-bromophenyl)-5-methyl-1∼{H}-pyrazol-3-yl]-5-methoxy-phenol]	12.5 (≈ 34.8 µM)	3.13 (≈ 8.71 µM)	6.25 (≈ 17.4 µM)	12.5 (≈ 34.8 µM)	–	–	–	25 (≈ 69.6 µM)	6.25 (≈ 17.4 µM)	8.96 (≈ 24.9 µM)	–	~83.7 (≈ 233 µM)
CCOc1ccc(-c2[nH]nc(C(F)(F)F)c2-c2ccc(Br)cc2)c(O)c1 [May-6, 2-[4-(4-bromophenyl)-5-(trifluoromethyl)-1∼{H}-pyrazol-3-yl]-5-ethoxy-phenol]	> 50	3.13 (≈ 7.33 µM)	1.56 (≈ 3.65 µM)	3.13 (≈ 7.33 µM)	–	–	–	50 (≈ 117 µM)	3.13 (≈ 7.33 µM)	4.53 (≈ 10.6 µM)	–	~563 (≈ 1320 µM)
O=[N+]([O-])c1ccc(COc2ccc(-c3n[nH]c(C(F)(F)F)c3-c3ccc(Br)cc3)c(O)c2)cc1 [May-11, 2-[4-(4-bromophenyl)-5-(trifluoromethyl)-1∼{H}-pyrazol-3-yl]-5-(4-nitrobenzyl)oxyphenol]	> 50	> 50	1.56 (≈ 2.92 µM)	1.56 (≈ 2.92 µM)	–	–	–	12.5 (≈ 23.4 µM)	3.13 (≈ 5.86 µM)	–	6.2 (≈ 11.6 µM)	~3.91 (≈ 7.32 µM)
NNC(=O)COc1ccc(-c2n[nH]c(C(F)(F)F)c2-c2ccc(Br)cc2)c(O)c1 [May-12, 2-[4-[4-(4-bromophenyl)-5-(trifluoromethyl)-1∼{H}-pyrazol-3-yl]-3-hydroxy-phenoxy]acetohydrazide]	50 (≈ 106 µM)	6.25 (≈ 13.3 µM)	12.5 (≈ 26.5 µM)	12.5 (≈ 26.5 µM)	–	–	–	> 50	6.25 (≈ 13.3 µM)	7.04 (≈ 14.9 µM)	–	27.2 (≈ 57.7 µM)
Oc1ccc(-c2n[nH]c(C(F)(F)F)c2-c2ccc(Cl)cc2)c(O)c1 [May-14, 4-[4-(4-chlorophenyl)-5-(trifluoromethyl)-1∼{H}-pyrazol-3-yl]resorcinol]	25 (≈ 70.5 µM)	3.13 (≈ 8.82 µM)	3.13 (≈ 8.82 µM)	12.5 (≈ 35.2 µM)	–	–	–	> 50	12.5 (≈ 35.2 µM)	–	10.6 (≈ 29.9 µM)	3.04 (≈ 8.57 µM)
